According to PubChem BioAssay AID1919014 (Molecular Pharmacology Branch, DTP, NCI, 2023):
Where “and” joins values, the source holds several entries; their conditions need not be identical. Identical values can stand only once.

Tested on: NCI-H1341 complex spheroids, percent test/control
Experiment: Anticancer human tumor NCI-H1341 cell line growth inhibition [AhR];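 further: spheroids exposed to agents for seven days before readout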
Conditions: for viability, T/C: stronger effect = lower value
Source text: Multicellular complex tumor spheroid response to aryl hydrocarbon receptor antagonists in combination with a variety of drugs and investigational agents in selected tumor cell lines
The current study was undertaken to assess response to aryl hydrocarbon receptor antagonists in combination with standard-of-care drugs and investigational agents in solid tumor complex spheroid models. Complex spheroids include a stromal component modeled by human endothelial cells (HUVEC) and fibroblasts modeled by human mesenchymal stem cells (MSCs). The concentration ranges selected for each drug and investigational agent were based upon clinically achievable concentrations if the clinical Cmax of the agent was known.
Compounds. The drugs and investigational agents: BAY 2416964 (NSC825713), GNF351 (NSC835774), CH-223191 (NSC835775), CPI-455 (NSC825282), aza-TdCyd (NSC777586), decitabine (NSC127716), belinostat (NSC758774), entinostat (NSC756642), pevonedistat (NSC761192), tazemetostat (NSC777109), talazoparib (NSC765396), olaparib (NSC753686), selinexor (NSC780203), nedisertib (M3814, NSC802822), bortezomib (NSC756655), venetoclax (NSC766270), doxorubicin (NSC123127), elimusertib (BAY189344, NSC800525), ceralasertib (AZD6738, NSC777638), TAK-243 (NSC785004), alisertib (NSC759677), etoposide (NSC141540), topotecan (NSC609699), eribulin (NSC707389), gemcitabine (NSC613327), carboplatin (NSC241240), cisplatin (NSC119875), and SN-38 (NSC673596) were obtained from the National Cancer Institute (NCI) Developmental Therapeutics Program Chemical Repository (32). The FDA-approved anticancer drug set is available from the Developmental Therapeutics Program at https://dtp.cancer.gov/organization/dscb/obtaining/available plates.htm. […] The stock solutions were prepared in dimethyl sulfoxide (DMSO, Sigma-Aldrich, St. Louis, MO, cat. D2650), except for the platinum compounds which were prepared in saline (Quality Biological, Gaithersburg, MD, cat. 114-055-101), at 800-fold the tested concentration and stored at -70 degrees C prior to their use. All drugs and investigational agents were tested over a range starting from a high concentration at or near the clinical Cmax and decreasing in half-log increments. If the clinical Cmax for an agent had not been determined, the highest concentration tested was 10 microM (Table 1).
Cell Culture. All cells were maintained in an incubator at 37 degrees C and 5% CO2 with 95% humidity. The PDC lines were cultured according to standard operating procedures established by the NCI PDMR (https://pdmr.cancer.gov). Briefly, all PDCs were thawed and cultured in Matrigel-coated flasks prepared with a working solution of 1X Ham's F-12 nutrient mix, without supplementation (Invitrogen, Waltham, MA, cat. 11765054), 100 U/mL penicillin-streptomycin (Invitrogen, cat. 15140122), and 2.5% Matrigel (Corning Inc., Corning, NY, cat. 354248) for the first three passages. All PDCs were cultured in complete DMEM/F-12 media containing advanced DMEM/F-12 (Invitrogen, cat. 12634028), 4.9% defined fetal bovine serum, heat inactivated (HyClone Laboratories Inc., Logan, UT, cat. SH30070.03HI), 389 ng/mL hydrocortisone (Sigma-Aldrich, cat. H4001), 9.7 ng/mL human EGF recombinant protein (Invitrogen, cat. PHG0313), 23.4 microg/mL adenine (Sigma-Aldrich, cat. A2786), 97.3 U/mL penicillin-streptomycin (Invitrogen, cat. 15140122), 1.9 mM L-glutamine (Invitrogen, cat. 25030081), and 9.7 microM Y-27632 dihydrochloride (Tocris Bioscience, Bristol, United Kingdom, cat. 1254). The PDCs were cultured in complete DMEM/F12 media without 10 microM Y-27632 dihydrochloride for at least two passages prior to the screen. The established cell lines NCI-H1341 and […] were cultured in DMEM/F-12, HEPES (Invitrogen, cat. 11330032), 5% defined fetal bovine serum (HyClone Laboratories Inc., cat. SH30070.03), ITS premix universal culture supplement [insulin (5 microg/mL), transferrin (5 microg/mL), and selenious acid (5 ng/mL)] […]

[1] = curve of first compound, second compound 0.1 µM
[2] = curve of first compound, second compound 0.316 µM
[3] = curve of first compound, second compound 1 µM
[4] = curve of first compound, second compound 3.16 µM
[5] = curve of first compound, second compound 10 µM
[6] = second compound 0.1 µM, first compound 0.0316 µM
[7] = second compound 0.1 µM, first compound 0.1 µM
[8] = second compound 0.1 µM, first compound 0.316 µM
[9] = second compound 0.1 µM, first compound 1 µM
[10] = second compound 0.316 µM, first compound 0.0316 µM
[11] = second compound 0.316 µM, first compound 0.1 µM
[12] = second compound 0.316 µM, first compound 0.316 µM
[13] = second compound 0.316 µM, first compound 1 µM
[14] = second compound 1 µM, first compound 0.0316 µM
[15] = second compound 1 µM, first compound 0.1 µM
[16] = second compound 1 µM, first compound 0.316 µM
[17] = second compound 1 µM, first compound 1 µM
[18] = second compound 3.16 µM, first compound 0.0316 µM
[19] = second compound 3.16 µM, first compound 0.1 µM
[20] = second compound 3.16 µM, first compound 0.316 µM
[21] = second compound 3.16 µM, first compound 1 µM
[22] = second compound 10 µM, first compound 0.0316 µM
[23] = second compound 10 µM, first compound 0.1 µM
[24] = second compound 10 µM, first compound 0.316 µM
[25] = second compound 10 µM, first compound 1 µM

| IC50 [1] [nM] | IC50 [2] [nM] | IC50 [3] [nM] | IC50 [4] [nM] | IC50 [5] [nM] | SMILES | viability, T/C [6] [%] | viability, T/C [7] [%] | viability, T/C [8] [%] | viability, T/C [9] [%] | viability, T/C [10] [%] | viability, T/C [11] [%] | viability, T/C [12] [%] | viability, T/C [13] [%] | viability, T/C [14] [%] | viability, T/C [15] [%] | viability, T/C [16] [%] | viability, T/C [17] [%] | viability, T/C [18] [%] | viability, T/C [19] [%] | viability, T/C [20] [%] | also measured |
| --- | --- | --- | --- | --- | --- | --- | --- | --- | --- | --- | --- | --- | --- | --- | --- | --- | --- | --- | --- | --- | --- |
|  |  |  |  |  | CC1COCCN1c1cc(-c2ccnn2C)c2ccnc(-c3ccn[nH]3)c2n1 (configuration not stated) |  |  |  |  |  |  |  |  |  |  |  |  |  |  |  | viability, T/C (compound 0.00316 µM): 107% and 90.1% and 110%; viability, T/C (compound 0.01 µM): 115% and 99.5% and 98.4%; viability, T/C (compound 0.0316 µM): 60.1% and 77.4% and 53.4%; viability, T/C (compound 0.1 µM): 28.1% and 43% and 29.3%; viability, T/C (compound 0.316 µM): 23.1% and 38.5% and 23.2%; viability, T/C (compound 1 µM): 16.5% and 27.6% and 19.2%; IC50 (curve of compound): 43.2 nM and 79.6 nM and 38.3 nM |
| 1600 | 3530 | 3150 | 2110 | 721 | CC1COCCN1c1cc(C2(S(C)(=N)=O)CC2)nc(-c2ccnc3[nH]ccc23)n1 (configuration not stated) + Cc1ccccc1N=Nc1ccc(NC(=O)c2ccnn2C)c(C)c1 | 92.7 | 92.3 | 94.4 | 57.6 | 77.1 | 108 | 89 | 81.2 | 88.2 | 114 | 83.2 | 84.3 | 77.9 | 90.2 | 69.2 | viability, T/C (second compound 0.1 µM, first compound 3.16 µM): 45.2%; viability, T/C (second compound 0.1 µM, first compound 10 µM): 30.3%; viability, T/C (second compound 0.316 µM, first compound 3.16 µM): 52.2%; viability, T/C (second compound 0.316 µM, first compound 10 µM): 31.1%; viability, T/C (second compound 1 µM, first compound 3.16 µM): 48.6%; viability, T/C (second compound 1 µM, first compound 10 µM): 29.4%; viability, T/C [21]: 63.4%; viability, T/C (second compound 3.16 µM, first compound 3.16 µM): 43.6%; viability, T/C (second compound 3.16 µM, first compound 10 µM): 26%; viability, T/C [22]: 55.9%; viability, T/C [23]: 57.5%; viability, T/C [24]: 55.5%; viability, T/C [25]: 47.6%; viability, T/C (second compound 10 µM, first compound 3.16 µM): 34.5%; viability, T/C (second compound 10 µM, first compound 10 µM): 25.4% |
| 154 | 179 | 85.3 | 207 | 215 | Nc1ncn(C2CC(O)C(CO)O2)c(=O)n1 (configuration not stated) + CC(CO)NC(=O)c1cc(-c2ccc(Cl)cc2)nn(-c2cnn(C)c2)c1=O | 81.8 | 59.3 | 34.2 | 26.6 | 85.2 | 61.8 | 39.1 | 31.8 | 81.3 | 45 | 32.5 | 33.7 | 67.1 | 66.3 | 40.6 | viability, T/C (second compound 0.1 µM, first compound 0.00316 µM): 76.5%; viability, T/C (second compound 0.1 µM, first compound 0.01 µM): 85.7%; viability, T/C (second compound 0.316 µM, first compound 0.00316 µM): 92.1%; viability, T/C (second compound 0.316 µM, first compound 0.01 µM): 99%; viability, T/C (second compound 1 µM, first compound 0.00316 µM): 92.2%; viability, T/C (second compound 1 µM, first compound 0.01 µM): 86.3%; viability, T/C (second compound 3.16 µM, first compound 0.00316 µM): 79.8%; viability, T/C (second compound 3.16 µM, first compound 0.01 µM): 65.6%; viability, T/C [21]: 30.9%; viability, T/C (second compound 10 µM, first compound 0.00316 µM): 82.1%; viability, T/C (second compound 10 µM, first compound 0.01 µM): 69.6%; viability, T/C [22]: 79.8%; viability, T/C [23]: 67.5%; viability, T/C [24]: 41%; viability, T/C [25]: 27.2% |
